Reference: patent US8039670B2, “Analogs of alpha galactosyceramide and uses thereof” (Ludwig Institute for Cancer Research, priority 2005, dated 2011)

Columns and labels:
IL-12 p70 protein = test: Example F: IL-12 p70 in tail blood six hours after injection (ELISA); format: in vivo; settings: 1 μg or 10 μg
Description: These experiments were performed to determine the effect of selected compounds of the invention in stimulating the production of IL-12 production in subject animals. The animals received 1 μg or 10 μg of threitol, glycerol or Gal-Cer. One group of animals also received 50 μg of MPL. Six hours following injection, tail blood samples were collected and the IL-12 p70 protein was determined using an ELISA all in accordance with standard procedures.

DC = test: Viability of analog-pulsed DC co-cultured with iNKT cells (propidium iodide); format: cell-based, human; settings: at concentration of maximal DC maturation
Description: (§1) Different analogs of α-GalCer as indicated or LPS were added to co-cultures of human DC and iNKT cells. (A) Maturation of the DC was assessed after 40 h, gating on CD11c positive cells. Histograms indicate the CD83 and CD86 profiles of DC from different treatments; the percentages indicate the percentage of CD83hi mature DC and the numbers in parenthesis, the mean fluorescence intensity of the population contained within the labeled gate. DC and iNKT cells were co-cultured in the presence of different analogs of α-GalCer for 24 hours. Supernatants were analyzed using ELISA for the presence of (B) IL-12p40 released by the DC and (C) IFN-γ from the iNKT cells. All the compounds tested induced weaker but significant cytokine production than α-GalCer, with the exception of arabinitolceramide. (D) Titration of α-GalCer, OCH or threitolceramide on DCs and co-culture with iNKT cells induces DC maturation in vitro. Cells were co-cultured in the presence of the indicated concentration of analog and the percentages of DC with increased CD83/CD80 are shown. […] Viability of α-GalCer or analog-pulsed DC was assessed after 40 h co-culture in the presence of iNKT cells by flow cytometry. Cells were stained with propidium iodide and the percentage of live CD11c gated cells remaining in the culture are shown.
(§2) To compare the functions of high affinity α-GalCer, intermediate affinity threitolceramide with the known, low affinity analog OCH, the three compounds were titrated onto DC and used to present to iNKT cells. Maturation of DC and DC viability were examined after 48 h.

OVA-specific IgGs = test: OVA-specific IgG in serum after co-administration with OVA (ELISA, FIG. 7B); format: in vivo, mice; settings: 1 μg with 400 μg OVA, bled 11-14d
Description: (A) C57BL/6 or iNKT^−/− mice were injected i.v. with 1 μg of vehicle, α-GalCer, analog or 25 μg MPL. Twenty hours after injection splenocytes were stained with antibodies against B220 and CD86 and analyzed by flow cytometry. Maturation was assessed by the upregulation of CD86 at the cell surface, gating on B cells (B220^+). Mean fluorescence intensity for each histogram is indicated. […] Mice were bled 11-14d after administration and the serum tested by ELISA for antibodies. Briefly, ELISA plates were coated with 10 μg/ml OVA and then serial dilutions of sera added and incubated overnight at 4° C. before detecting with an HRP-conjugated sheep anti-mouse IgG.
Non-glycolipid analogs of α-GalCer stimulate B cell maturation in the presence of iNKT cells in vivo and subsequent antibody production. (A) C57BL/6 or iNKT^−/− mice were injected i.v. with 1 μg of vehicle, α-GalCer, analog or 25 μg MPL. Twenty hours after injection splenocytes were stained with antibodies against B220 and CD86 and analyzed by flow cytometry. Maturation was assessed by the upregulation of CD86 at the cell surface, gating on B cells (B220^+) (FIG. 7 A). Mean fluorescence intensity for each histogram is indicated. […] Mice were bled 11-14d after administration and the serum tested by ELISA for antibodies (FIG. 7 B).

NKT cells = settings: cancer patients, after treatment; cited from earlier work
iNKT cell clone = test: Cytokine release from iNKT cell clone stimulated with analog-pulsed C1R-human CD1d cells; format: cell-based
Description: FIG. 9 Inositol-based α-GalCer derivatives are functional in vitro. Human monocyte-derived DC were pulsed with 150 ng of different inositol analogs and co-cultured with iNKT cells for 24 h. […] Numbers indicate the mean fluorescence intensity of the histogram gated on CD11c^+ cells. 6-Deoxy and 6-Sulfono-myo-inositolceramide induce significant (B) IL-12p40 and (C) IFN-γ production by DC and iNKT cells respectively in the supernatants of co-cultured DC and iNKT cells. […] Release of (D) IFN-g and (E) IL-4 from iNKT cells after 24 h in culture with C1R-human CD1d cells pulsed with α-GalCer, 6-Deoxy- or 6-Sulfono-myo-inositolceramide.
The three inositol compounds were titrated on C1R cells expressing human CD1d and used to stimulate an iNKT cell clone.

human CD1d = human CD1d (Homo sapiens, UniProt P15813); settings: acyl and sphingosine chains in A′ and C′ pockets; cited from earlier work
human CD1d, sequence (P15813 20-301 limits assumed): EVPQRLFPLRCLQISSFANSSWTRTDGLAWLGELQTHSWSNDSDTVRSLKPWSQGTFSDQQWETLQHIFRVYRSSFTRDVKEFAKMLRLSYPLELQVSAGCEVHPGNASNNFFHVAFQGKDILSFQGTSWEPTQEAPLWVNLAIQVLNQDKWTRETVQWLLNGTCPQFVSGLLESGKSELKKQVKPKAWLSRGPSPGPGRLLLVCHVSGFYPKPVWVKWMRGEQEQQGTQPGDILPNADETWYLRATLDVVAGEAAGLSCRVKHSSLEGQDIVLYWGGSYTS
human CD1d, sequence (P61769 21-119 partner): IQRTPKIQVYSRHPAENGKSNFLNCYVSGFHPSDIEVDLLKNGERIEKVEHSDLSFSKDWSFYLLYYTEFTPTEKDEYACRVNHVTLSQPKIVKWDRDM

[1] = Viability of analog-pulsed DC co-cultured with iNKT cells (propidium iodide); format: cell-based, human; settings: human; at concentration of maximal DC maturation; read-out: DC still viable
Description: as §1, §2

With CCCCCCCCCCCCCCCCCCCCCCCCCC(=O)N[C@@H](COC[C@H](O)[C@@H](O)CO)[C@H](O)[C@H](O)CCCCCCCCCCCCCC [Compound 3, Threitol Ceramide] the IL-12/p70 secretion (IL-12 p70 protein) was “Dose dependent increases in IL-12/p70 secretion” and the “DC viability (propidium iodide negative) compared with α-GalCer” value (DC) was “significantly greater proportion of DC were propidium iodide negative”.
In the case of CCCCCCCCCCCCCCCCCCCCCCCCCC(=O)N[C@@H](CO[C@H]1OC(CO)[C@H](O)C(O)C1O)[C@H](O)[C@H](O)CCCCCCCCCCCCCC (stereo partly drawn) [α-GalCer, α galactosylceramide, reference compound], the “OVA-specific IgGs” value (OVA-specific IgGs) is listed as “induces significant OVA-specific IgGs”, the “time until NKT cells in peripheral blood fell to undetectable levels” value (NKT cells) is listed as at most 24 h and the “concentration at which IFN-γ and IL-4 approach a plateau” value (iNKT cell clone) is listed as 200 ng/mL. The “shape complementarity (Sc)” value (human CD1d) was 0.61 and the viability at 48 h, 0.8 ng/ml [1] was 10%.
